Some test systems named below: DLD-1; DMS-114; DMS-273; HOP-18; KM-20L2; LXFL 529; M19-MEL; RXF 631; XF498.
Experiment in all cases: DTP human tumour cell line panel, 48 h

Here are results for 26 molecules from ChEMBL document CHEMBL1201862, “PubChem BioAssay data set” (2004).

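Interpolation was linear, between the two tested concentrations surrounding the appropriate level; five concentrations were tested over 48 hours in 96-well plates. GI50: concentration for 50% inhibition of growth.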 Activity calls are given as the source filed them. Cut-off read from the data, not from the text of the source: active = GI50 up to about 1.1 µM and inactive = higher.

One may read the GI50 as the concentration giving 50% growth inhibition.

`O=C(O)c1ccccc1C1c2ccc(Cl)cc2Oc2cc(Cl)ccc21`: the GI50 in the assay with DLD-1, in the assay on DMS-114, in the assay on DMS-273, with HOP-18, in the assay with KM-20L2 and in the assay with LXFL 529 was > 100 µM (inactive) each time. In addition, the GI50 in the assay with M19-MEL and with RXF 631 was > 100 µM (inactive) throughout.

In the case of `CC1=C2C3OC(=O)C(C)C3C(O)C[C@@]2(C)C(=O)CC1` (some centres not stated), the GI50 with DLD-1, with DMS-114, with DMS-273, with HOP-18, in the assay with KM-20L2 and with LXFL 529 was > 100 µM (inactive) in each case. For the same molecule, the GI50 with M19-MEL and in the assay with RXF 631 was > 100 µM (inactive) throughout.

For the molecule `Cc1ccc(/C=C/C(=O)c2sc(-n3nc(-c4ccccc4)cc3-c3ccccc3)nc2C)cc1`, the GI50 with DLD-1 is > 100 µM (inactive); in the assay with DMS-114 it was 10.6 µM (inactive); in the assay on DMS-273 it was > 100 µM (inactive); in the assay with HOP-18, > 100 µM (inactive); in the assay on KM-20L2, > 100 µM (inactive); in the assay with M19-MEL, > 100 µM (inactive).

Take `CC(=O)Nc1ccc(-c2nnc(SCC(=O)Nc3cccc(C)c3)o2)cc1`: the GI50 with DLD-1 is 10.5 µM (inactive); in the assay with DMS-114 it was 2.34 µM (inactive); with DMS-273 it was 10.3 µM (inactive); in the assay on HOP-18 it was 16.1 µM (inactive); in the assay with KM-20L2, 10.2 µM (inactive); in the assay on LXFL 529, 10.9 µM (inactive). The GI50 with M19-MEL was 12.2 µM (inactive).

As for `CCOC(=O)NC(=O)c1cn(CCCOC(=O)CCCCCCCCC(=O)OCCCn2cc(C(=O)NC(=O)OCC)c(=O)[nH]c2=O)c(=O)[nH]c1=O`, the GI50 in the assay on DLD-1 was 17.8 µM (inactive); with DMS-114, 6.65 µM (inactive); in the assay on DMS-273 it was 20.5 µM (inactive); in the assay with HOP-18, 29.1 µM (inactive); in the assay on KM-20L2 it was 34.5 µM (inactive); in the assay with LXFL 529, 28 µM (inactive). Also, the results for the GI50 in the assay on M19-MEL and in the assay with XF498 were 12.9 µM (inactive) and 20.7 µM (inactive), respectively.

Turning to `Cc1c(C)c2ccc3oc4ccccc4c3c2oc1=O`, the GI50 with DLD-1 was > 100 µM (inactive); in the assay on DMS-114, 86.7 µM (inactive); with HOP-18, > 100 µM (inactive); with KM-20L2, > 100 µM (inactive); in the assay with LXFL 529, > 100 µM (inactive); in the assay on M19-MEL, > 100 µM (inactive). The GI50 in the assay with RXF 631 was > 100 µM (inactive).

On to `CCOP1(=O)C=C(C)C(=C(Cl)Cl)C(C)=C1` (configuration not stated), for which the GI50 in the assay with DLD-1 was 24 µM (inactive); with HOP-18, 13.8 µM (inactive); in the assay on KM-20L2, 2.68 µM (inactive); with LXFL 529, 3.78 µM (inactive); with M19-MEL, 8.07 µM (inactive); in the assay on RXF 631, 5.87 µM (inactive). Besides, in the assay with XF498, the GI50 is 0.548 µM (active).

Take `O=C1C(=O)N(c2ccc(Cl)cc2Cl)C(=O)C(=O)C1c1nc2ccccc2s1`: the GI50 with DLD-1 was > 51.8 µM (inactive); in the assay on DMS-114, > 72.4 µM (inactive); with DMS-273 it was > 100 µM (inactive); in the assay on HOP-18, > 100 µM (inactive); with KM-20L2, > 100 µM (inactive); in the assay on LXFL 529 it was 50.6 µM (inactive). Further, the GI50 was > 100 µM (inactive) in the assay on M19-MEL and > 55 µM (inactive) in the assay on XF498.

On to `N#Cc1nn(-c2ccc(Cl)cc2)c(=N)c2c(N)n3nc(-c4ccccc4)cc3nc12`, for which the GI50 in the assay with DLD-1 is 1 µM (active); in the assay with DMS-273, 1 µM (active); in the assay on HOP-18 it was < 0.01 µM (active); with KM-20L2, 1 µM (active); in the assay on LXFL 529, 0.705 µM (active); with XF498, 41.4 µM (inactive).

On to `CN1CCN(Cc2nc3cccc4c3c([n+]2[O-])-c2ccccc2-4)CC1`, for which the GI50 in the assay on DLD-1 was 54.5 µM (inactive); in the assay with DMS-114, 44.4 µM (inactive); with DMS-273, 44.1 µM (inactive); in the assay with HOP-18, 37.2 µM (inactive); with KM-20L2, 36.4 µM (inactive); with LXFL 529 it was 38.3 µM (inactive). In addition, the figures for the GI50 with M19-MEL and with RXF 631 were 34 µM (inactive) and 60.4 µM (inactive), respectively.

Consider `CCOCN1COCN/C1=N/C#N`, for which the GI50 in the assay with DLD-1 was > 100 µM (inactive); in the assay on DMS-114, 71.4 µM (inactive); in the assay with DMS-273, > 100 µM (inactive); in the assay with HOP-18 it was > 100 µM (inactive); in the assay with KM-20L2 it was > 100 µM (inactive); in the assay with LXFL 529 it was > 100 µM (inactive). Besides, the GI50 with RXF 631 and in the assay on XF498 was > 100 µM (inactive) throughout.

For the molecule `Cc1ccc(NC(=O)c2cc3cc(/N=N/c4ccc(Br)cc4)ccc3oc2=O)cc1`, the GI50 with DLD-1 is 46.5 µM (inactive); in the assay on DMS-114 it was 37 µM (inactive); in the assay on DMS-273, 41.8 µM (inactive); in the assay on HOP-18 it was < 0.01 µM (active); in the assay with XF498, > 100 µM (inactive).

Turning to `Cc1cc(C)c(C(=O)/C=C/c2ccccc2)c(C)c1`, the GI50 in the assay with DLD-1 was 22.6 µM (inactive); with DMS-114, 24.1 µM (inactive); in the assay on HOP-18, > 100 µM (inactive); in the assay on KM-20L2, 32.6 µM (inactive); with LXFL 529, 31.6 µM (inactive); in the assay on M19-MEL, 28.5 µM (inactive). Besides, the GI50 in the assay on XF498 was 12.6 µM (inactive).

With `Cc1ccc(OCC(=O)N2N=C(c3ccccc3)CC2(O)c2ccccc2)cc1` (configuration not stated), the GI50 in the assay with DLD-1 is 27.9 µM (inactive); with DMS-273, 20.8 µM (inactive); in the assay with KM-20L2 it was 18 µM (inactive); in the assay on LXFL 529, 19.3 µM (inactive); with M19-MEL, 44.6 µM (inactive); with RXF 631 it was 26.9 µM (inactive). Further, the GI50 with XF498 is > 100 µM (inactive).

As to `CC(C)N(C(=O)C12C3C4C5C3C1(C#N)C5C42)C(C)C` (configuration not stated), the GI50 in the assay with DLD-1, in the assay with DMS-114, in the assay with DMS-273, with HOP-18, in the assay on KM-20L2 and in the assay on LXFL 529 was > 100 µM (inactive) each time. Further, the GI50 with M19-MEL and in the assay with XF498 was > 100 µM (inactive) in each case.

For `C[n+]1c2ccccc2c(/C=N\NS(=O)(=O)c2ccc(Cl)cc2)c2ccccc21`, the GI50 in the assay with DLD-1 was 67.5 µM (inactive); in the assay with DMS-114 it was 28.3 µM (inactive); in the assay with DMS-273 it was 41.8 µM (inactive); with KM-20L2 it was 42.4 µM (inactive); with M19-MEL, 81.7 µM (inactive); with XF498, 27.3 µM (inactive).

For the molecule `CCC(=O)OC1CCn2c1nc1c2C(=O)C(C)=C(NC(C)=O)C1=O` (configuration not stated), the GI50 was 1.84 µM (inactive) in the assay with DLD-1; 0.425 µM (active) in the assay with DMS-114; 1.79 µM (inactive) with DMS-273; 1.41 µM (inactive) in the assay with LXFL 529; 1.76 µM (inactive) in the assay on M19-MEL.

For `O=S1(=O)CCN(c2ccccc2CC(c2c[nH]c3ccccc23)c2c[nH]c3ccccc23)CC1`, the GI50 was 4.37 µM (inactive) in the assay on DLD-1; 5.3 µM (inactive) in the assay on DMS-114; 8.63 µM (inactive) in the assay on DMS-273; 14.4 µM (inactive) in the assay on HOP-18; 8.85 µM (inactive) in the assay with KM-20L2; 4.13 µM (inactive) in the assay with LXFL 529. The GI50 with M19-MEL was 5.74 µM (inactive).

Regarding `COc1cccc(/C=C\c2cc(OC)c(OC)c(OC)c2)c1`, the concentration for 50% growth inhibition (GI50) in the assay with DLD-1 is 0.49 µM (active); in the assay with DMS-114 it was 1.48 µM (inactive); in the assay with DMS-273, 0.553 µM (active); with KM-20L2 it was 0.37 µM (active); in the assay on LXFL 529, 2.49 µM (inactive); in the assay with M19-MEL, 12.1 µM (inactive). The GI50 in the assay on RXF 631 was 0.836 µM (active); in the assay on XF498 it was 2.8 µM (inactive).

In the case of `Nc1nc(=O)n(C2CC(O)C(O)C(CO)O2)cc1F` (configuration not stated), the GI50 in the assay with DLD-1, in the assay with DMS-114, in the assay on HOP-18, in the assay on KM-20L2, in the assay on LXFL 529 and in the assay on M19-MEL was > 100 µM (inactive) each time. Also, the GI50 in the assay on RXF 631 is > 100 µM (inactive); in the assay on XF498 it was 61.4 µM (inactive).

Regarding `N#Cc1ccccc1NC(=O)C(=O)C(C(=O)c1ccccc1-c1ccccc1)C1OC(=O)c2ccccc21` (configuration not stated), the GI50 in the assay with DLD-1 was 16 µM (inactive); in the assay with DMS-114 it was 15.5 µM (inactive); in the assay with KM-20L2, 20.9 µM (inactive); with M19-MEL it was 14.8 µM (inactive); in the assay on XF498, 16 µM (inactive).

`Nc1ccn(C2OC(COC(=O)C34CC5CC(CC(C5)C3)C4)C(O)C2O)c(=O)n1` (configuration not stated): the GI50 was > 100 µM (inactive) with DLD-1; 12.4 µM (inactive) in the assay on DMS-114; > 100 µM (inactive) with DMS-273; > 100 µM (inactive) with HOP-18; > 100 µM (inactive) with KM-20L2; > 100 µM (inactive) with M19-MEL.

As to `CC1(C)OC(=O)[C@@](C)([C@H](O)c2ccccc2)O1`, the GI50 in the assay on DLD-1 was > 100 µM (inactive); in the assay with DMS-114, 56.8 µM (inactive); with DMS-273 it was > 100 µM (inactive); in the assay with KM-20L2 it was > 100 µM (inactive); in the assay on LXFL 529, > 100 µM (inactive); with M19-MEL, > 100 µM (inactive). Also, the GI50 in the assay on RXF 631 was 79.4 µM (inactive); in the assay on XF498, > 100 µM (inactive).

Consider `c1cc2n(n1)CCN2`, for which the GI50 in the assay on DLD-1 was 5420 µM (inactive); with DMS-114, 1560 µM (inactive); in the assay on DMS-273 it was 262 µM (inactive); in the assay on HOP-18 it was 4030 µM (inactive); in the assay with KM-20L2 it was 2970 µM (inactive); in the assay with M19-MEL it was 6870 µM (inactive). For the same molecule, in the assay with XF498, the GI50 is 431 µM (inactive).

As for `COc1ccc2cc3c4cc(OC)c(OC)cc4ccn3c2c1`, the GI50 with DLD-1, with DMS-114, in the assay with DMS-273, in the assay on HOP-18, with LXFL 529 and in the assay with M19-MEL was > 100 µM (inactive) throughout. The GI50 in the assay on XF498 was > 100 µM (inactive).

`O=C(NCCOC(=O)CCCCCCCCC(=O)OCCNC(=O)NC(=O)c1cn(Cc2ccccc2)c(=O)[nH]c1=O)NC(=O)c1cn(Cc2ccccc2)c(=O)[nH]c1=O`: the GI50 in the assay on DLD-1, with DMS-114, in the assay with DMS-273, in the assay on KM-20L2, with LXFL 529 and in the assay with M19-MEL was > 100 µM (inactive) in each case. The GI50 in the assay with XF498 is > 100 µM (inactive).
